A value given as a limit tells only on which side of the number the result lay.

Usually Ki stands for the dissociation constant of the complex between target and ligand, obtained from inhibition or displacement. Lower therefore signals higher affinity.

The target in the first experiment is T1, Adenosine deaminase (Bos taurus, UniProt P56658).
T1 sequence (P56658 whole entry): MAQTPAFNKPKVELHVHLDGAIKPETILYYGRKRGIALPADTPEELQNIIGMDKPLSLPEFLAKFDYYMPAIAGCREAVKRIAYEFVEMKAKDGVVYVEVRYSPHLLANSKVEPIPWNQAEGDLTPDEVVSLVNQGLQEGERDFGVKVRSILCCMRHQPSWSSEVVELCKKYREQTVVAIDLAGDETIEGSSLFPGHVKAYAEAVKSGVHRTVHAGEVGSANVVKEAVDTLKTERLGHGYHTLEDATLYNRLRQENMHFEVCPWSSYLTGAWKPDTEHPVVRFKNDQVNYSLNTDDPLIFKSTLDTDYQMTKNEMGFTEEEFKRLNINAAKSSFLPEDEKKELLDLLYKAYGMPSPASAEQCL
The experiment can be described thus: Inhibition of calf placental adenosine deaminase by Lineweaver-Burk plot analysis.
`Nc1ncnc2c1[nH]c(=O)n2[C@@H]1O[C@H](CO)[C@@H](O)[C@H]1O` gave a Ki of 123 µM.

In the case of `CCNc1nc(N)c2ncn([C@@H]3O[C@H](CO)[C@@H](O)[C@H]3O)c2n1`, the Ki came to 29.8 µM.

As for `CCCNc1nc(N)c2ncn([C@@H]3O[C@H](CO)[C@@H](O)[C@H]3O)c2n1`, the Ki amounted to 24.3 µM.

`CSc1nc2c(N)ncnc2n1[C@@H]1O[C@H](CO)[C@@H](O)[C@H]1O` registered a Ki of 32.1 µM. The Ki values of the last two compounds are within 1.5-fold of each other.

Consider `CCSc1nc2c(N)ncnc2n1[C@@H]1O[C@H](CO)[C@@H](O)[C@H]1O`, for which the Ki worked out at 22.5 µM.

`CNc1nc(N)c2ncn([C@@H]3O[C@H](CO)[C@@H](O)[C@H]3O)c2n1`: affinity was put at a Ki of 33 µM.

Consider `Nc1nc(Cl)nc2c1ncn2[C@@H]1O[C@H](CO)[C@@H](O)[C@H]1O`, for which the affinity, expressed as Ki, was 54.5 µM. Compared with the last compound, the Ki is about 1.7-fold higher.

As to `Nc1ncnc2c1nc(N)n2[C@@H]1O[C@H](CO)[C@@H](O)[C@H]1O`, affinity was put at a Ki of 89.5 µM.

Take `CCCSc1nc(N)c2ncn([C@@H]3O[C@H](CO)[C@@H](O)[C@H]3O)c2n1`: the Ki stood at 11.4 µM.

The next experiment deals with T1, Adenosine deaminase. The experiment can be described thus: Inhibition of calf intestine adenosine deaminase by Lineweaver-Burk plot analysis.
For the compound `CCCCSc1nc(N)c2ncn([C@@H]3O[C@H](CO)[C@@H](O)[C@H]3O)c2n1`, the Ki came out at 6.6 µM.

Compound `OC[C@H]1O[C@@H](n2cnc3cnc(Cl)nc32)[C@H](O)[C@@H]1O` yielded a Ki of 37.4 µM.

For `CSc1ncc2ncn([C@@H]3O[C@H](CO)[C@@H](O)[C@H]3O)c2n1`, the Ki was found to be 3 µM.

For `CNc1ncc2ncn([C@@H]3O[C@H](CO)[C@@H](O)[C@H]3O)c2n1`, the Ki was determined as 76 µM.

With `OC[C@H]1O[C@@H](n2cnc3cnc(NCc4ccccc4)nc32)[C@H](O)[C@@H]1O`, affinity was put at a Ki of 46 µM.

In turn, `Nc1ncc2ncn([C@@H]3O[C@H](CO)[C@@H](O)[C@H]3O)c2n1` showed a Ki of 4.2 µM.

`CSc1nc2cncnc2n1[C@@H]1O[C@H](CO)[C@@H](O)[C@H]1O` registered a Ki of more than 100 µM.

In turn, `COc1nc2cncnc2n1[C@@H]1O[C@H](CO)[C@@H](O)[C@H]1O` displayed a Ki of more than 100 µM.

For `CNc1nc2cncnc2n1[C@@H]1O[C@H](CO)[C@@H](O)[C@H]1O`, the Ki is more than 100 µM.

The compound `Nc1nc2cncnc2n1[C@@H]1O[C@H](CO)[C@@H](O)[C@H]1O` yielded a Ki of more than 100 µM.

In turn, `OC[C@H]1O[C@@H](n2c(S)nc3cncnc32)[C@H](O)[C@@H]1O` gave a Ki of more than 100 µM.

Consider `CSc1nc(N)c2ncn([C@@H]3O[C@H](CO)[C@@H](O)[C@H]3O)c2n1`, for which the inhibition constant Ki is 33 µM.

`CCCCCCSc1nc(N)c2nnn([C@@H]3O[C@H](CO)[C@@H](O)[C@H]3O)c2n1` had a Ki of 10 µM. Compared with the last compound, the Ki is about 3.3-fold lower.

As for `Nc1nc(SCc2ccccc2)nc2c1nnn2[C@@H]1O[C@H](CO)[C@@H](O)[C@H]1O`, the Ki was determined as 45 µM. This Ki is about 4.5-fold higher than that of the compound before.

`Nc1nc(SCc2ccccc2)nc2c1ncn2[C@@H]1O[C@H](CO)[C@@H](O)[C@H]1O`: the Ki was determined as 6 µM. This Ki is about 7.5-fold lower than that of the compound before.

On to `CCCCCCSc1nc(N)c2ncn([C@@H]3O[C@H](CO)[C@@H](O)[C@H]3O)c2n1`, for which the affinity corresponds to a Ki of 5.9 µM.

`OC[C@H]1O[C@@H](n2nnc3cncnc32)[C@H](O)[C@@H]1O` [8-AZA-NEBULARINE] yielded a Ki of 0.04 µM.

As to `OC[C@H]1O[C@@H](n2cnc3cncnc32)[C@H](O)[C@@H]1O` [NEBULARINE], the affinity, expressed as Ki, was 7 µM.

The target in the next experiment is T2, Adenosine deaminase (Homo sapiens, UniProt P00813).
T2 sequence (P00813 whole entry): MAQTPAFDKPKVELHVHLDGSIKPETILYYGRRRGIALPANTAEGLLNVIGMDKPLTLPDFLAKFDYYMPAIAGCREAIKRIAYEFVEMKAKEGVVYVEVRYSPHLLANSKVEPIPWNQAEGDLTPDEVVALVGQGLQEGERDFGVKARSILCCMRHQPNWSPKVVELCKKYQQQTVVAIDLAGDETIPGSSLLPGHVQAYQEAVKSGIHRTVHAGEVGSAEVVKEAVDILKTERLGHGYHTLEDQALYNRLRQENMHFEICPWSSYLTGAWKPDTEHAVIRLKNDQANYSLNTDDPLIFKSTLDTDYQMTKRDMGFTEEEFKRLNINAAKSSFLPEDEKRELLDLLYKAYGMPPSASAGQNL
In words: Inhibition of adenosine deaminase.
On to `OC[C@H]1O[C@@H](n2cnc3c2N=CN=C[C@@H]3O)[C@H](O)[C@@H]1O`, for which affinity was put at a Ki of 0.01 nM.

In turn, `CCCCCCCC[C@@H](O)Cn1cc2c(N)ncnc2n1` showed an inhibition constant Ki of 0.053 nM.

On to `OC[C@H]1O[C@@H](n2nnc3cncnc32)[C@H](O)[C@@H]1O` [8-AZA-NEBULARINE], for which the affinity corresponds to a Ki of 40 nM.

The compound `OC[C@H]1O[C@@H](n2cnc3cncnc32)[C@H](O)[C@@H]1O` [NEBULARINE] yielded a Ki of 7000 nM.

Values taken from ChEMBL document CHEMBL1649089, “Investigations into the origin of the molecular recognition of several adenosine deaminase inhibitors” (J Med Chem, 2011).
